Laboratory results reported in ChEMBL document CHEMBL5370660, “Design of a Supersoft Topical JAK Inhibitor, Which Is Effective in Human Skin but Rapidly Deactivated in Blood” (J Med Chem, 2023).

What was measured:
[1] = biological target: Tyrosine-protein kinase JAK1 (Homo sapiens, UniProt P23458); experiment: Inhibition of GST-fused JAK1 (866 to 1154 residues)(unknown origin) using FITC-Ahr-KKSRGDYMTMQIG-NH2 peptide as substrate incubated for 30 mins in presence of ATP by caliper microfluidic mobility shift assay
[2] = biological target: T1, Tyrosine-protein kinase JAK3 (Homo sapiens, UniProt P52333); experiment: Inhibition of GST-fused JAK3 (811 to 1124 residues)(unknown origin) using Carboxyfluorescein-Ahx-GGEEEEYFELVKKKK peptide as substrate incubated for 30 mins in presence of ATP by caliper microfluidic mobility shift assay
T1 sequence (P52333 whole entry): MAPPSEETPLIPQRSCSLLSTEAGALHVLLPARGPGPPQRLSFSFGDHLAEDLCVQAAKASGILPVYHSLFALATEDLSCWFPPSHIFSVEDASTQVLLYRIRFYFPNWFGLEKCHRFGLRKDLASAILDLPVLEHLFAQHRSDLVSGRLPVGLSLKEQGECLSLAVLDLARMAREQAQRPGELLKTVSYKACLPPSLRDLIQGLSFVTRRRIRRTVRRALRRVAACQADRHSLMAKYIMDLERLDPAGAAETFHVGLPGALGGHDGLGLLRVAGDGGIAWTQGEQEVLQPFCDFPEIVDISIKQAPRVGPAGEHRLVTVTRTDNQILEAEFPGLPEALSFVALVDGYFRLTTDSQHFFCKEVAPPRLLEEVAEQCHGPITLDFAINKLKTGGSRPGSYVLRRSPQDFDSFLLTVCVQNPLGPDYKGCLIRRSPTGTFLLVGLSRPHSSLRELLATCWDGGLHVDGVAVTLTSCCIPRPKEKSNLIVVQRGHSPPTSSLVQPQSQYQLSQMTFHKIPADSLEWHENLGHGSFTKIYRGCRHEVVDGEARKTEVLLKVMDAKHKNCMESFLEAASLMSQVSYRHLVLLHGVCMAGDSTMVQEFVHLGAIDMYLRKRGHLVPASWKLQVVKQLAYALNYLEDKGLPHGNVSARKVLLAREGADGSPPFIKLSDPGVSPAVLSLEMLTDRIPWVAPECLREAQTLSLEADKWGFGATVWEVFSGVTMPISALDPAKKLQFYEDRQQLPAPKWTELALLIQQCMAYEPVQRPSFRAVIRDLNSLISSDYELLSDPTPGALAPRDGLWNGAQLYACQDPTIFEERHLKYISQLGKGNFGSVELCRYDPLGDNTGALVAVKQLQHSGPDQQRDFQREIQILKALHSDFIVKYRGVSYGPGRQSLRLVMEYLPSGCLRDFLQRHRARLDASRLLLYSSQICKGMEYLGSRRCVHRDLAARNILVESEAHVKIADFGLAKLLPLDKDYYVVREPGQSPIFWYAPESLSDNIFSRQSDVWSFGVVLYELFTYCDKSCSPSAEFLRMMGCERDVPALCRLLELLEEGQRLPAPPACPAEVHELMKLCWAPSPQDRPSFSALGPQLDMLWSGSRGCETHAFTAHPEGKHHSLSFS

JAK2/JAK1 = JAK2/JAK1 (Homo sapiens, UniProt O60674+P23458); experiment: Inhibition of JAK1/2-mediated STAT1 phosphorylation in human M07E cells preincubated for 30 mins followed by IFN-alpha stimulation measured after 15 mins by flow cytometry; type: cell-based
JAK3/JAK1 = JAK3/JAK1 (Homo sapiens, UniProt P23458+P52333); experiment: Inhibition of JAK1/3-mediated STAT5 phosphorylation in human whole blood incubated for 30 mins followed by IL-2 addition measured after 15 mins by flow cytometry; type: tissue-based
[3] = Permeability of compound; type: ADME; details: not told; read-out: permeability
[4] = Lipophilicity, LogD of compound; type: physicochemical; details: octanol/water
[5] = Thermodynamic solubility of the compound at pH 6.8 using crystalline form of sample; type: physicochemical
[6] = Saturation solubility of compound in PEG400/transcutol/benzyl alcohol/water mixture using crystalline form of sample; type: physicochemical
[7] = Stability of compound under light stress assessed as compound decomposition under sunlight with intensity of 4000 KJ/m2, irradiation of 250 W/m2, wavelength of >290 nm, temperature of 37 degreeC for 4 hrs using crystalline form of sample; type: ADME; details: read-out: Drug degradation
[8] = Stability of compound under temperature stress assessed as compound degradation at 50 degreeC measured after 7 days using crystalline form of sample; type: physicochemical; details: time 7 day; read-out: Drug degradation
[9] = Stability of compound in fresh human skin explant using Franz diffusion cell model assessed as compound concentration in dermis at 3 % administered topically preincubated overnight followed by fresh media replacement in receiver fluid without compound and subsequently stimulated with IL-4/IL-13 measured after 40 hrs by LC-MS/MS analysis; type: ADME, tissue-based, Skin of body; details: topical or ocular, read-out: Ct
[10] = biological target: T2, Eukaryotic translation initiation factor 2-alpha kinase 3 (Homo sapiens, UniProt Q9NZJ5); experiment: Inhibition of EIF2AK3 (unknown origin)
T2 sequence (Q9NZJ5 whole entry): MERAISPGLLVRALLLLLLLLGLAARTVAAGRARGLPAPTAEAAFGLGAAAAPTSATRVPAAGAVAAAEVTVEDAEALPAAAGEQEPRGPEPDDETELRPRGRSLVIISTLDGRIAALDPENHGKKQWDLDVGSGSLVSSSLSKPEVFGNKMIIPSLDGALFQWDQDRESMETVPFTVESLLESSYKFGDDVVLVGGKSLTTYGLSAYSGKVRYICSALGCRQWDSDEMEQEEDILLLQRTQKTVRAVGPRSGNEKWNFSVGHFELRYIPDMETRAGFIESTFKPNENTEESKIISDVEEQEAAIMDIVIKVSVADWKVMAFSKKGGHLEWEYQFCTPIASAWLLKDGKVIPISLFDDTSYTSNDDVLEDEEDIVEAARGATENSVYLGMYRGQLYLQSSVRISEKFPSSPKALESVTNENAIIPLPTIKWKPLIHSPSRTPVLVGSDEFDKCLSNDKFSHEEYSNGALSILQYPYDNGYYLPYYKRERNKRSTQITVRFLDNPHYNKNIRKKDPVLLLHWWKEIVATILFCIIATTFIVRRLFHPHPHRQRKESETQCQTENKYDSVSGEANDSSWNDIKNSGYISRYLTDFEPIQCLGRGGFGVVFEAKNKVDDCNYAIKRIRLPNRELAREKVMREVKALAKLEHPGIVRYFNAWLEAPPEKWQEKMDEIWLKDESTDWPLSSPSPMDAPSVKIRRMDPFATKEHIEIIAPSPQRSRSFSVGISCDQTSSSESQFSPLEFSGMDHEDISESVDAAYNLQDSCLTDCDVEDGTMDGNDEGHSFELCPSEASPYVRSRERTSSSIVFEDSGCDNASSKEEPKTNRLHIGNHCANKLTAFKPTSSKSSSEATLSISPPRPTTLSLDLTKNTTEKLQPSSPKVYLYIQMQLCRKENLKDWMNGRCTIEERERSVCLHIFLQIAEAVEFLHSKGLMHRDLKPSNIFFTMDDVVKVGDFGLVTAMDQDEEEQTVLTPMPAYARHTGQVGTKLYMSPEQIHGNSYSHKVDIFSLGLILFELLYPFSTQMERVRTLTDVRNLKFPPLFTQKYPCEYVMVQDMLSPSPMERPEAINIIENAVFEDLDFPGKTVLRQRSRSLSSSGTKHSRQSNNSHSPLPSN

Chain of JAK3/JAK1 (P23458 whole entry, one chain of several): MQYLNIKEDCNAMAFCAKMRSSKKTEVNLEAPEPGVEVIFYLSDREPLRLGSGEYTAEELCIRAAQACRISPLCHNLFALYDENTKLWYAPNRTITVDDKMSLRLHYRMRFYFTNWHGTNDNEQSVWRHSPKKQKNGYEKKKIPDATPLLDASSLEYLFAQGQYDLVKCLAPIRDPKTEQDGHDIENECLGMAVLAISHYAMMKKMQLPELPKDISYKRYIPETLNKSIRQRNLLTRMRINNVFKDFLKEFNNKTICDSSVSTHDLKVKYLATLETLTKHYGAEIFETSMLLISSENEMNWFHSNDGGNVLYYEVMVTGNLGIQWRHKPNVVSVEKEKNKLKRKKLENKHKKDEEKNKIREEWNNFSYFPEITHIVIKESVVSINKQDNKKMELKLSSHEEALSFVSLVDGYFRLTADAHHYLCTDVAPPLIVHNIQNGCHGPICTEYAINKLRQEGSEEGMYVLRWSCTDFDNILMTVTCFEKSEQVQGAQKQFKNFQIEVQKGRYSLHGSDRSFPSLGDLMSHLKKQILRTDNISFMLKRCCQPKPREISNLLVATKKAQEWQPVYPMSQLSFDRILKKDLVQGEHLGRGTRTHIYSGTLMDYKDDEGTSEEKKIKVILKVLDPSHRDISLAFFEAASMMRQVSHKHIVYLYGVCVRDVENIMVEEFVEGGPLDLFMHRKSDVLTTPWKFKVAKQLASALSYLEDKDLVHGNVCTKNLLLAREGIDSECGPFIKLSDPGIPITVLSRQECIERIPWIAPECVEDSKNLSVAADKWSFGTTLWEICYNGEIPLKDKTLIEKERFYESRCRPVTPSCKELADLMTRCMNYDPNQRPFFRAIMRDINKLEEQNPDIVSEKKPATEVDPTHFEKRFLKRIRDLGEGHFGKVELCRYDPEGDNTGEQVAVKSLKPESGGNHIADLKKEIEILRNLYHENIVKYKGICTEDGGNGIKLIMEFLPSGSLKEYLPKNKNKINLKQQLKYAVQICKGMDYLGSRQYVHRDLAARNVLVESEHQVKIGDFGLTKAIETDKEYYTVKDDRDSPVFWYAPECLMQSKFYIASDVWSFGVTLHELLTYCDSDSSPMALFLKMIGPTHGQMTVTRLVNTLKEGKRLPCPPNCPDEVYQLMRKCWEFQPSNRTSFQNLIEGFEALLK
Chain of Tyrosine-protein kinase JAK1 (P23458 whole entry, the tested form may be a part): as the sequence (P23458 whole entry, one chain of several) above
Chain of JAK2/JAK1 (P23458 whole entry): as the sequence (P23458 whole entry, one chain of several) above
Chain of JAK2/JAK1 (O60674 whole entry): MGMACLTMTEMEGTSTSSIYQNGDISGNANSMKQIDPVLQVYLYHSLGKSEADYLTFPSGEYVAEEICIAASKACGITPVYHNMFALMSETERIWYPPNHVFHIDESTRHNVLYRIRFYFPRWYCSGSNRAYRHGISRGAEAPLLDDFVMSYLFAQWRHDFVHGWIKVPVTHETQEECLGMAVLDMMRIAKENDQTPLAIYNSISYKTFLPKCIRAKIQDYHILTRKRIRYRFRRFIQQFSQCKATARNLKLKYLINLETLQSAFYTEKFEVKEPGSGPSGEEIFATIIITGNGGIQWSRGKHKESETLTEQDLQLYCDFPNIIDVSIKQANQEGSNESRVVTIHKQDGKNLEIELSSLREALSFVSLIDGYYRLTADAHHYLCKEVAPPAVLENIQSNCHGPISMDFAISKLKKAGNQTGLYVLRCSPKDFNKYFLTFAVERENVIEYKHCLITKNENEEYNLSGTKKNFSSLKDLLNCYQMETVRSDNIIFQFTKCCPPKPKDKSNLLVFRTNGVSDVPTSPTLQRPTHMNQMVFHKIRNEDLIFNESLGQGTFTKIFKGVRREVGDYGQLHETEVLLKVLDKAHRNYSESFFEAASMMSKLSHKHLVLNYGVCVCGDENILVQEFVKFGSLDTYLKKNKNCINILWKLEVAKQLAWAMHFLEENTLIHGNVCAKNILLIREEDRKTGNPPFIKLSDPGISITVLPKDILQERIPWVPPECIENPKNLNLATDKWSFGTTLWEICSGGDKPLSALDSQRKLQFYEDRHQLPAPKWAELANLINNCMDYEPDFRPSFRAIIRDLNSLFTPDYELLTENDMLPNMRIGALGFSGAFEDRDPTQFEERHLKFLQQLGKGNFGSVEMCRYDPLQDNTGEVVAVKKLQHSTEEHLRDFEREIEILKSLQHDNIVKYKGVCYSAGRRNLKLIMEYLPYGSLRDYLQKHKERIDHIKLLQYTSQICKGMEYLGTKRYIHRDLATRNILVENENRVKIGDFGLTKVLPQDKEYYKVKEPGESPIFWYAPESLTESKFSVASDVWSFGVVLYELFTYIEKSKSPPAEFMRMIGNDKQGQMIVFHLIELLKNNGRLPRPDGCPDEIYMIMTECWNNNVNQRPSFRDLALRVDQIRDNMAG

Molecule `COC[C@@H](C)OC(=O)Cc1ccc(Nc2cc(Nc3ccccc3OC)c(C(N)=O)cn2)nc1` has an IC50 [1] of 5 nM, an IC50 [2] of 4 nM and an IC50 (JAK2/JAK1) of 45 nM. The IC50 (JAK3/JAK1) was 14800 nM, the Papp [3] was 18 ×10⁻⁶ cm/s and the logD [4] was 3.3. The Therm_solubility [5] was 0.007 µg/mL, the solubility thermodynamic [6] was > 18000 µg/mL and the degraded at 4 h [7] was 0.1%. The degraded at 168 h [8] was 0.4%, the concentration at 40 h, 3 % [9] was 59 µM and the IC50 [10] was < 100 nM.
